Measured values as given in ChEMBL document CHEMBL1139346, “Discovery of innovative small molecule therapeutics” (2009).

Columns and labels:
Rattus norvegicus [1] = assay: Neuroprotective effect in rat transient mCAO focal ischemia model assessed as reduction of infarct volume at 10 mg/kg relative to control; type: functional; set-up: scale not given: the % may be the effect or the level left
Rattus norvegicus [2] = assay: Neuroprotective effect in rat transient mCAO focal ischemia model assessed as reduction of infarct volume at 30 mg/kg relative to control; type: functional; set-up: scale not given: the % may be the effect or the level left

CO[C@@H]1C/C(C)=C\[C@H]2CC[C@@H]([C@@H](C)C[C@@H](C)C(=O)[C@H](OC)[C@H](O)/C(C)=C/[C@@H](C)C(=O)C[C@@H]([C@H](C)C[C@@H]3CC[C@@H](O)[C@H](OC)C3)OC(=O)[C@@H]3CCCCN3C(=O)C(=O)[C@]3(O)O[C@@H](CC[C@H]3C)C1)N(c1ccccc1)O2 [ILS-920]
Activity (Rattus norvegicus [1]): 23% | Activity (Rattus norvegicus [2]): 36%
